Columns and labels:
[1] = system: inflammation-related CRM1 cargo proteins; assay: Immunofluorescence of nuclear localization of CRM1 cargos in HeLa and THP-1 cells; type: cell-based, human; details: 1-10 μM Compound 1 + 20 ng/mL TNFα, 4-24 h
Experimental: HeLa and THP-1 (human acute monocytic leukemia) cells were treated with inflammation inducing factor, TNFα, alone or in combination with 1-10 μM of Compound 1 for 4-24 h, and then were analyzed by immunofluorescence (IF) for the nuclear localization of inflammation-related CRM1 cargo proteins: IκB, Nrf2, HMGB1, FoxP3, FOXO1a, RxRα, PPARγ and NFκB (p65 subunit).
For the detection of IkB, Nrf2, RxRα and PPARγ localization, cells were pre-incubated with 10 μM Compound 1 for 30 minutes, followed by incubation with 20 ng/mL TNFα for 4 hrs in serum free media. […] IκB was detected by the primary rabbit monoclonal (E130) antibody from Abcam (ab32518); Nrf2 was detected by the primary rabbit polyclonal antibody from Santa Cruz (sc722); RxR alpha was detected by the primary rabbit polyclonal antibody from Santa Cruz (sc553); PPAR gamma was detected by the primary rabbit monoclonal […] antibody from Cell Signaling (#2443); Foxo1A was detected by the primary rabbit monoclonal [C29H4] antibody from Cell Signaling (#2880); HMGB1 was detected by the primary rabbit polyoclonal antibody from Abcam (ab18256); FoxP3 was detected by the primary rabbit polyclonal antibody from Abcam (ab10563); NFκB-p65 was detected by the primary rabbit monoclonal [C22B4] antibody from Cell Signaling (#4764). […]

[2] = system: Nrf2 pathway; assay: Nrf2 pathway induction in THP-1 cells with or without KEAP1 knockdown (quantitative PCR); type: cell-based, human
From the text: THP-1 (human acute monocytic leukemia cells) cells were used to evaluate the effects of Compound 1 on the Nrf2 pathway in an inflammation environment. Nuclear factor (erythroid-derived 2)-like 2 (Nrf2) is an anti-inflammatory transcription factor. Under normal conditions, Nrf2 is kept in the cytoplasm by Kelch like-ECH associated protein 1 (KEAP1), which degrades Nrf2 by ubiquitination. Nrf2 can also move into the nucleus and back into the cytoplasm as a CRM1 cargo. In the current study, Nrf2 was protected from degradation by knocking down KEAP1 with siRNA. Then, KEAP1-depleted cells were treated with TNFα to induce inflammation, and the ability of Compound 1 to reverse inflammation by up-regulation of the Nrf2 pathway was tested.
THP-1 (acute monocytic leukemia) cells were plated in two 10 cm culture dishes (6*10^6 cells/dish) with RPMI-1640 medium (Lonza) supplemented with 10% heat-inactivated fetal bovine serum (Invitrogen) and 2-mercaptoethanol to a final concentration of 0.05 mM. Cells in one dish were transfected with 50 nM of KEAP1 siRNA (Life Technologies, Silencer Select, siRNA ID # s18982) using Lipofectamine RNAiMax (Invitrogen), whereas the cells in the other dish were transfected with 50 nM of control siRNA, Block-iT (Invitrogen). Transfected cells were left for 72 h and the KEAP1 knockdown efficiency was calculated with quantitative PCR using a probe against KEAP1.
Next, the cells from each of the dishes were divided equally into 4 wells in different 6-well plates. One of the wells from each of the plates was pre-treated with 1 μM of Compound 1 for 1 h, followed by 20 ng/mL TNFα for 24 h. The other wells were treated with either 1 μM Compound 1 or 20 ng/mL TNFα or neither for 24 h. Following the treatment, RNA was extracted from the cells using an RNA extraction kit (Qiagen). RNA samples from each treatment group were reverse transcribed and real-time PCR was performed on the corresponding cDNA sequences using probes against Nrf2 and two of its downstream genes, NQO1 and EPHX1. THP-1 cells were transfected with KEAP1 siRNA. 40% knockdown efficiency was achieved. The KEAP1 knockdown cells were treated with either 1 μM of Compound 1 or 20 ng/mL of TNFα or both together for 24 h.

[3] = system: PMA-induced psoriasis; assay: PMA-induced psoriasis in female BALB/c mice; type: in vivo; details: 10 μM topical, daily
Experimental: Twenty-four (24) female BALB/c mice, aged 6 to 8 weeks with a body weight between 22 and 30 g were used. The mice were randomized into […]. The grouping of animals was as follows: Group I (Naïve; ethanol), Group II (PMA; ethanol), Group III (PMA; […] Twenty (20) μL of PMA (4 μg/20 μL of acetone) was applied topically on the upper surface of pinna of ear of all animals in Group II to Group IV. PMA was applied daily on left ear and on alternate days (M-W-F) on right ear from Day 1 to Day 9. Thirty (30) minutes after application of PMA, vehicle or standard compound (betamethasone) or Compound 2 was applied topically to the ears of animals from different groups. […] Animals were observed daily for a period of 12 days for any treatment related symptoms. Basal ear thickness was recorded in all animals (before application of PMA) using digital screw gauge at time T0 (Day 1). […] Commercially available 100% DMSO (LR Grade) and ethanol (LR Grade) were used to prepare the formulations. PMA was prepared by dissolving 10 mg of PMA in 50.0 mL of acetone. Compound 2 was prepared by dissolving 1.47 mg of Compound 2 in 300 μL of 100% DMSO.

[4] = 1 μM Compound 1 + 20 ng/mL TNFα, 24 h, KEAP1 knockdown
[5] = 1 μM Compound 1 + 20 ng/mL TNFα, 24 h, without KEAP1 knockdown

With `CC(C)(C)C(=O)NNC(=O)/C=C\n1cnc(-c2cc(C(F)(F)F)cc(C(F)(F)F)c2)n1` [Compound 1, (Z)-3-(3-(3,5-bis(trifluoromethyl)phenyl)-1H-1,2,4-triazol-1-yl)-N′-pivaloylacrylohydrazide] the “nuclear localization of IκB, Nrf2, HMGB1, FoxP3, FOXO1a, RxRα, PPARγ and NFκB” value [1] was “nuclear localization of the above cargos, even in the presence of TNFα”, the “increase in NQO1 expression” value [2, 4] was 4 fold and the “increase in Nrf2 expression compared to untreated cells” value [2, 4] was 2.5 fold. For the same compound, the “increase in NQO1 expression” value [2, 5] was 2 fold, the “increase in Nrf2 mRNA levels” value [2, 5] was at most 3 fold and the “induction of EPHX1 expression” value [2, 5] was 1.5 fold. The “EPHX1 mRNA expression” value ([2]; 1 μM Compound 1, presence or absence of TNFα) was “up-regulated the expression of EPHX1”, the Nrf2 expression ([2]; 1 μM Compound 1 alone, with or without KEAP1 knockdown) was “did not have any significant effect” and the Nrf2 signaling ([2]; 1 μM for 24 hrs in the presence of 20 ng/mL TNFα) was “up-regulated Nrf2 signaling”.
For `O=C(/C=C\n1cnc(-c2cc(C(F)(F)F)cc(C(F)(F)F)c2)n1)NNC(=O)CN1CCOCC1` [Compound 2, (Z)-3-(3-(3,5-bis(trifluoromethyl)phenyl)-1H-1,2,4-triazol-1-yl)-N′-(2-morpholinoacetyl)acrylohydrazide], the anti-psoriatic activity [3] was “statistically significant anti-psoriatic activity”, the “left and right ear disease activity index (DAI)” value [3] was “prominent reduction in PMA-induced increases” and the “left and right ear thickness” value [3] was “prominent reduction in PMA-induced increases”.
